Where two headings read alike, the source gives them in different places.
Legend:
[1] = rcm bond, 14-membered ring, Hoveyda-Grubbs II, DCE, 16.0 h
[2] = tested on: HCV replicons (wild type NS3-NS5B regions of HCV type 1b) in Huh-7 luc/neo cells; assay: Replicon assay (Huh-Luc cells, luciferase readout); format: cell-based; settings: Hepatitis C virus, Huh-7, 72 h, incubation of three days, luciferase activity
Text: The compounds of formula (I) were examined for activity in the inhibition of HCV RNA replication in a cellular assay. […] The cellular assay was based on a bicistronic expression construct, as described by Lohmann et al. (1999) Science vol. 285 pp. 110-113 with modifications described by Krieger et al. (2001) Journal of Virology 75: 4614-4624, in a multi-target screening strategy. In essence, the method was as follows.
The assay utilized the stably transfected cell line Huh-7 luc/neo (hereafter referred to as Huh-Luc). This cell line harbors an RNA encoding a bicistronic expression construct comprising the wild type NS3-NS5B regions of HCV type 1b translated from an Internal Ribosome Entry Site (IRES) from encephalomyocarditis virus (EMCV), preceded by a reporter portion (FfL-luciferase), and a selectable marker portion (neo^R, neomycine phosphotransferase). The construct is bordered by 5′ and 3′ NTRs (non-translated regions) from HCV type 1b. Continued culture of the replicon cells in the presence of G418 (neo^R) is dependent on the replication of the HCV RNA. The stably transfected replicon cells that express HCV RNA, which replicates autonomously and to high levels, encoding inter alia luciferase, are used for screening the antiviral compounds.
The replicon cells were plated in 384 well plates in the presence of the test and control compounds which were added in various concentrations. Following an incubation of three days, HCV replication was measured by assaying luciferase activity (using standard luciferase assay substrates and reagents and a Perkin Elmer ViewLux™ ultraHTS microplate imager). Replicon cells in the control cultures have high luciferase expression in the absence of any inhibitor. The inhibitory activity of the compound on luciferase activity was monitored on the Huh-Luc cells, enabling a dose-response curve for each test compound. EC50 values were then calculated, which value represents the amount of the compound required to decrease by 50% the level of detected luciferase activity, or more specifically, the ability of the genetically linked HCV replicon RNA to replicate.

[3] = molecular target: HCV NS3/4A protease complexes (full-length hepatitis C NS3 protease enzyme with NS4A cofactor) (Hepatitis C virus genotype 1a, UniProt P27958); assay: Inhibition assay (enzymatic assay, depsipeptide substrate hydrolysis); format: biochemical; settings: enzyme 1 nM, 25 μM NS4A cofactor, 0.5 μM substrate, 30° C., competitive inhibition model
Sequence of HCV NS3/4A protease complexes (full-length hepatitis C NS3 protease enzyme with NS4A cofactor) (P27958 1027-1657, other chains not shown): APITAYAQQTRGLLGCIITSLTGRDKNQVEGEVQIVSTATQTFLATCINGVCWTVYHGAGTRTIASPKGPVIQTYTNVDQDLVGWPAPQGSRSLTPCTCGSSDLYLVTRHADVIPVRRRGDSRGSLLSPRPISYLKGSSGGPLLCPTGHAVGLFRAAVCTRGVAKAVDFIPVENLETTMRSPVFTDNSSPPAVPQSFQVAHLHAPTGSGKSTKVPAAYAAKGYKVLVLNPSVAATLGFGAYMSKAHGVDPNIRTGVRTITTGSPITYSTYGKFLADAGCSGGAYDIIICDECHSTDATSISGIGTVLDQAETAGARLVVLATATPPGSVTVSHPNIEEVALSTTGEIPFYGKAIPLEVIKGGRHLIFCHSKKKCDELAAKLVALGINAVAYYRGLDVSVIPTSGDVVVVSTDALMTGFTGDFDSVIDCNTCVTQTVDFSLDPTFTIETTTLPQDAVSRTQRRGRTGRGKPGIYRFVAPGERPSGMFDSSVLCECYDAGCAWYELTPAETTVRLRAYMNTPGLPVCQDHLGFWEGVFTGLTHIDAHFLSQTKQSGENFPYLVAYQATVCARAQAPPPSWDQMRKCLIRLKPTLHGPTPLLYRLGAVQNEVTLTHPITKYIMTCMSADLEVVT
Method: The aim of this in vitro assay is to measure the inhibition of HCV NS3/4A protease complexes by the compounds of the present invention. This assay provides an indication of how effective compounds of the present invention would be in inhibiting HCV NS3/4A proteolytic activity.
The inhibition of full-length hepatitis C NS3 protease enzyme was measured essentially as described in Poliakov, 2002 Prot Expression & Purification 25 363 371. Briefly, the hydrolysis of a depsipeptide substrate, Ac-DED(Edans)EEAbuψ[COO]ASK(Dabcyl)-NH2 (AnaSpec, San José, USA), was measured spectrofluorometrically in the presence of a peptide cofactor, KKGSVVIVGRIVLSGK (Åke Engström, Department of Medical Biochemistry and Microbiology, Uppsala University, Sweden). [Landro, 1997 #Biochem 36 9340-9348]. The enzyme (1 nM) was incubated in 50 mM HEPES, pH 7.5, 10 mM DTT, 40% glycerol, 0.1% n-octyl-D-glucoside, with 25 μM NS4A cofactor and inhibitor at 30° C. for 10 min, whereupon the reaction was initiated by addition of 0.5 μM substrate. Inhibitors were dissolved in DMSO, sonicated for 30 sec. and vortexed. The solutions were stored at −20° C. between measurements.
The final concentration of DMSO in the assay sample was adjusted to 3.3%. The rate of hydrolysis was corrected for inner filter effects according to published procedures.
[Liu, 1999 Analytical Biochemistry 267 331-335]. Ki values were estimated by non-linear regression analysis (GraFit, Erithacus Software, Staines, MX, UK), using a model for competitive inhibition and a fixed value for Km (0.15 μM). A minimum of two replicates was performed for all measurements.

Row | Structure (SMILES) | ring closure, isolated yield ([1]; from C=CCCCCN(C)C(=O)C1CC(Oc2cc(-c3ccccc3)nc(-c3ccccc3)n2)CC1C(=O)NC1(C(=O)OCC)CC1C=C, 1.66 mM) [%] | ring closure, isolated yield ([1]; from C=CCCCCN(C)C(=O)C1CC(Oc2cc(-c3ccccc3)nc(OC)n2)CC1C(=O)NC1(C(=O)OCC)CC1C=C, 1.83 mM) [%] | EC50 [2] [nM] | Ki [3] [nM]
1 | CCOC(=O)C12CC1C=CCCCCN(C)C(=O)C1CC(Oc3cc(-c4ccccc4)nc(-c4ccccc4)n3)CC1C(=O)N2 (centres unmarked) | 76 |  |  | 
2 | CCOC(=O)C12CC1C=CCCCCN(C)C(=O)C1CC(Oc3cc(-c4ccccc4)nc(OC)n3)CC1C(=O)N2 (centres unmarked) |  | 70 |  | 
3 | COc1nc(OC2CC3C(=O)NC4(C(=O)NS(=O)(=O)C5CC5)CC4C=CCCCCN(C)C(=O)N3C2)cc(-c2ccccc2)n1 (centres unmarked) [Example 1, Cyclopropanesulfonic acid [17-(2-methoxy-6-phenyl-pyrimidin-4-yloxy)-13-methyl-2,14-dioxo-3,13,15-triaza-tricyclo[13.3.0.0*4,6*]octadec-7-ene-4-carbonyl]-amide] |  |  | 1000 to 10000 | 0.1 to 4.9
4 | COc1nc(OC2CC3C(=O)NC4(C(=O)NS(=O)(=O)C5CC5)CC4C=CCCCCCNC(=O)N3C2)cc(-c2ccccc2)n1 (centres unmarked) [Example 2, Cyclopropanesulfonic acid [18-(2-methoxy-6-phenylpyrimidin-4-yloxy)-2,15-dioxo-3,14,16-triaza-tricyclo[14.3.0.0*4,6*]nonadec-7-ene-4-carbonyl]-amide] |  |  | 1000 to 10000 | 0.1 to 4.9
5 | COc1nc(OC2CC3C(=O)NC4(C(=O)NS(=O)(=O)C5CC5)CC4C=CCCCCN(C)C(=O)C3C2)cc(C(C)(C)C)n1 (centres unmarked) [Example 3, Cyclopropanesulfonic acid [17-(6-tert-butyl-2-methoxypyrimidin-4-yloxy)-13-methyl-2,14-dioxo-3,13-diaza-tricyclo[13.3.0.0*4,6*]octadec-7-ene-4-carbonyl]amide] |  |  | 1000 to 10000 | 5 to 99.9
6 | COc1nc(O[C@@H]2C[C@H]3C(=O)N[C@]4(C(=O)NS(=O)(=O)C5(C)CC5)C[C@H]4/C=C\CCCCCNC(=O)N3C2)cc(-c2ccccc2)n1 [Example 4, 1-Methyl-cyclopropanesulfonic acid [18-(2-methoxy-6-phenylpyrimidin-4-yloxy)-2,15-dioxo-3,14,16-triaza-tricyclo[14.3.0.0*4,6*]nonadec-7-ene-4-carbonyl]-amide] |  |  | 200 to 990 | 0.1 to 4.9
7 | COc1nc(O[C@@H]2C[C@H]3C(=O)N[C@]4(C(=O)NS(=O)(=O)C5(C)CC5)C[C@H]4/C=C\CCCCN(C)C(=O)[C@@H]3C2)cc(C(C)(C)C)n1 [Example 5, 1-Methyl-cyclopropanesulfonic acid [17-(6-tert-butyl-2-methoxy-pyrimidin-4-yloxy)-13-methyl-2,14-dioxo-3,13-diaza-tricyclo[13.3.0.0*4,6*]octadec-7-ene-4-carbonyl]-amide] |  |  | > 10000 | 100 to 1000
8 | COc1cc(OC2CC3C(=O)NC4(C(=O)NS(=O)(=O)C5CC5)CC4C=CCCCCCNC(=O)N3C2)nc(-c2ccccc2)n1 (centres unmarked) [Example 6, Cyclopropanesulfonic acid [18-(6-methoxy-2-phenylpyrimidin-4-yloxy)-2,15-dioxo-3,14,16-triaza-tricyclo[14.3.0.0*4,6*]nonadec-7-ene-4-carbonyl]-amide] |  |  | 0.5 to 199 | 0.1 to 4.9
9 | COc1cc(OC2CC3C(=O)NC4(C(=O)NS(=O)(=O)C5(C)CC5)CC4C=CCCCCN(C)C(=O)C3C2)nc(-c2ccccc2)n1 (centres unmarked) [Example 7, 1-Methyl-cyclopropanesulfonic acid [17-(6-methoxy-2-phenylpyrimidin-4-yloxy)-13-methyl-2,14-dioxo-3,13-diaza-tricyclo[13.3.0.0*4,6*]octadec-7-ene-4-carbonyl]-amide] |  |  | 0.5 to 199 | 0.1 to 4.9
10 | COc1cc(O[C@@H]2C[C@H]3C(=O)N[C@]4(C(=O)NS(=O)(=O)c5cccs5)C[C@H]4/C=C\CCCCN(C)C(=O)[C@@H]3C2)nc(-c2ccccc2)n1 [Example 9, Thiophene-2-sulfonic acid [17-(6-methoxy-2-phenylpyrimidin-4-yloxy)-13-methyl-2,14-dioxo-3,13-diaza-tricyclo[13.3.0.0*4,6*]octadec-7-ene-4-carbonyl]-amide] |  |  | 1000 to 10000 | 
11 | CN1CCCC/C=C\[C@@H]2C[C@@]2(C(=O)NS(=O)(=O)C2CC2)NC(=O)[C@@H]2C[C@@H](Oc3ccnc(N4CCOCC4)n3)C[C@H]2C1=O [Example 11, Cyclopropanesulfonic acid [13-methyl-17-(2-morpholin-4-yl-pyrimidin-4-yloxy)-2,14-dioxo-3,13-diaza-tricyclo[13.3.0.0*4,6*]octadec-7-ene-4-carbonyl]-amide] |  |  | > 10000 | 5 to 99.9
12 | CC(C)Nc1nccc(O[C@@H]2C[C@H]3C(=O)N[C@]4(C(=O)NS(=O)(=O)C5CC5)C[C@H]4/C=C\CCCCN(C)C(=O)[C@@H]3C2)n1 [Example 12, Cyclopropanesulfonic acid [17-(2-isopropylaminopyrimidin-4-yloxy)-13-methyl-2,14-dioxo-3,13-diaza-tricyclo[13.3.0.0*4,6*]octadec-7-ene-4-carbonyl]-amide] |  |  | > 10000 | 5 to 99.9
13 | COc1nc(O[C@@H]2C[C@H]3C(=O)N[C@]4(C(=O)NS(=O)(=O)C5(C)CC5)C[C@H]4/C=C\CCCCN(C)C(=O)[C@@H]3C2)cc(-c2ccccc2)n1 [Example 14, 1-Methyl-cyclopropanesulfonic acid [17-(2-methoxy-6-phenyl-pyrimidin-4-yloxy)-13-methyl-2,14-dioxo-3,13-diaza-tricyclo[13.3.0.0*4,6*]octadec-7-ene-4-carbonyl]-amide] |  |  | 200 to 990 | 5 to 99.9
14 | COc1ccc(-c2cc(OC3CC4C(=O)NC5(C(=O)NS(=O)(=O)C6CC6)CC5C=CCCCCN(C)C(=O)C4C3)nc(OC)n2)cc1 (centres unmarked) [Example 16, Cyclopropanesulfonic acid {17-[2-methoxy-6-(4-methoxy-phenyl)-pyrimidin-4-yloxy]-13-methyl-2,14-dioxo-3,13-diaza-tricyclo[13.3.0.0*4,6*]octadec-7-ene-4-carbonyl}-amide] |  |  | 200 to 990 | 0.1 to 4.9
15 | CN1CCCCC=CC2CC2(C(=O)NS(=O)(=O)C2CC2)NC(=O)C2CC(Oc3cc(-c4ccccc4)nc(-c4ccccc4)n3)CC2C1=O (centres unmarked) [Example 17, Cyclopropanesulfonic acid [17-(2,6-diphenyl-pyrimidin-4-yloxy)-13-methyl-2,14-dioxo-3,13-diaza-tricyclo[13.3.0.0*4,6*]octadec-7-ene-4-carbonyl]-amide] |  |  | 200 to 990 | 0.1 to 4.9
16 | COc1cccc(-c2cc(O[C@@H]3C[C@H]4C(=O)N[C@]5(C(=O)NS(=O)(=O)C6CC6)C[C@H]5/C=C\CCCCN(C)C(=O)[C@@H]4C3)nc(OC)n2)c1 [Example 24, Cyclopropanesulfonic acid {17-[2-methoxy-6-(3-methoxy-phenyl)-pyrimidin-4-yloxy]-13-methyl-2,14-dioxo-3,13-diaza-tricyclo[13.3.0.0*4,6*]octadec-7-ene-4-carbonyl}-amide] |  |  | 0.5 to 199 | 
17 | COc1cccc(-c2cc(O[C@@H]3C[C@H]4C(=O)N[C@]5(C(=O)NS(=O)(=O)C6(C)CC6)C[C@H]5/C=C\CCCCN(C)C(=O)[C@@H]4C3)nc(OC)n2)c1 [Example 25, 1-Methyl-cyclopropanesulfonic acid {17-[2-methoxy-6-(3-methoxy-phenyl)-pyrimidin-4-yloxy]-13-methyl-2,14-dioxo-3,13-diaza-tricyclo[13.3.0.0*4,6*]octadec-7-ene-4-carbonyl}-amide] |  |  | 0.5 to 199 | 

Reference: US8937080B2, “Pyrimidine substituted macrocyclic HCV inhibitors” (Medivir AB, priority 2007, dated 2015)
